# Experimental data reported in the supplement of paper PMC10307832.
# Experiments:
# Assay in all cases: relative viability (nuclei count vs DMSO), 5 days (fraction); higher = more cells survive
# AT9283 + Lapatinib = compound: O=C(Nc1c[nH]nc1-c1nc2ccc(CN3CCOCC3)cc2[nH]1)NC1CC1 [AT9283] + CS(=O)(=O)CCNCc1ccc(-c2ccc3ncnc(Nc4ccc(OCc5cccc(F)c5)c(Cl)c4)c3c2)o1 [Lapatinib] (partner 2 µM)
# Summary of the method: (§1)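 Values are medians from duplicate plates. Each reflects relative viability, defined as the nuclei count of treated wells over that of vehicle wells. Lung cancer cell lines in 1536-well plates were pin-tool dosed one day after seeding with one drug alone or with a fixed anchor-drug dose plus five library-drug doses (not always all listed) in √10 steps, then fixed, stained and imaged at 4× after 5 days.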
# AT9283 + Decitabine = compound: O=C(Nc1c[nH]nc1-c1nc2ccc(CN3CCOCC3)cc2[nH]1)NC1CC1 [AT9283] + Nc1ncn([C@H]2C[C@H](O)[C@@H](CO)O2)c(=O)n1 [Decitabine] (partner 2 µM)
# Summary of the method: as §1
# Erlotinib + AZD7762 = compound: C#Cc1cccc(Nc2ncnc3cc(OCCOC)c(OCCOC)cc23)c1 [Erlotinib] + NC(=O)Nc1cc(-c2cccc(F)c2)sc1C(=O)N[C@H]1CCCNC1 [AZD7762] (partner 0.2 µM)
# Summary of the method: as §1
# Erlotinib + Luminespib = compound: C#Cc1cccc(Nc2ncnc3cc(OCCOC)c(OCCOC)cc23)c1 [Erlotinib] + CCNC(=O)c1noc(-c2cc(C(C)C)c(O)cc2O)c1-c1ccc(CN2CCOCC2)cc1 [Luminespib] (partner 0.01 µM)
# Summary of the method: as §1
# AT9283 + Luminespib = compound: O=C(Nc1c[nH]nc1-c1nc2ccc(CN3CCOCC3)cc2[nH]1)NC1CC1 [AT9283] + CCNC(=O)c1noc(-c2cc(C(C)C)c(O)cc2O)c1-c1ccc(CN2CCOCC2)cc1 [Luminespib] (partner 0.01 µM)
# Summary of the method: as §1
Cell Line,relative viability (AT9283 + Lapatinib; first compound 0.003 µM),relative viability (AT9283 + Lapatinib; first compound 0.03 µM),relative viability (AT9283 + Lapatinib; first compound 0.09487 µM),relative viability (AT9283 + Lapatinib; first compound 0.3 µM),relative viability (AT9283 + Decitabine; first compound 0.003 µM),relative viability (AT9283 + Decitabine; first compound 0.03 µM),relative viability (AT9283 + Decitabine; first compound 0.09487 µM),relative viability (AT9283 + Decitabine; first compound 0.3 µM),relative viability (Erlotinib + AZD7762; first compound 0.02 µM),relative viability (Erlotinib + AZD7762; first compound 0.2 µM),relative viability (Erlotinib + AZD7762; first compound 0.6325 µM),relative viability (Erlotinib + AZD7762; first compound 2 µM),relative viability (Erlotinib + Luminespib; first compound 0.2 µM),relative viability (Erlotinib + Luminespib; first compound 0.6325 µM),relative viability (Erlotinib + Luminespib; first compound 2 µM),relative viability (AT9283 + Luminespib; first compound 0.003 µM),relative viability (AT9283 + Luminespib; first compound 0.03 µM),relative viability (AT9283 + Luminespib; first compound 0.09487 µM),relative viability (AT9283 + Luminespib; first compound 0.3 µM),relative viability (Erlotinib + Luminespib; first compound 0.02 µM)
NCI-H1355,1.01,0.911,0.845,0.168,0.341,0.357,0.322,0.195,0.794,0.687,0.674,0.682,0.597,0.658,0.557,0.6,0.702,0.375,0.239,–
NCI-H1395,0.904,0.703,0.412,0.427,0.819,0.604,0.42,0.385,0.421,0.367,0.338,0.407,0.613,0.676,0.671,0.639,0.649,0.397,0.418,0.919
NCI-H1437,0.702,0.246,0.157,0.155,0.47,0.599,0.426,0.306,1.01,–,–,0.956,1.18,1.1,1.03,1.26,1.12,0.681,0.344,1.15
NCI-H1651,0.83,0.481,0.215,0.279,0.371,0.516,0.428,0.318,0.365,0.428,0.406,0.304,0.837,0.817,0.746,0.725,0.826,0.773,0.623,0.883
NCI-H1666,0.634,0.386,0.243,0.321,0.6,0.589,0.669,0.534,0.72,0.834,0.732,0.633,0.941,1.01,0.713,1.03,0.726,0.557,0.499,0.969
NCI-H1734,0.988,0.687,0.291,0.249,0.54,0.324,0.261,0.254,0.579,0.513,0.607,0.507,0.212,0.194,0.197,0.221,0.145,0.165,0.18,0.202
NCI-H1755,1.08,0.775,0.357,0.399,0.712,0.803,0.67,0.527,0.487,0.438,0.499,0.379,0.432,0.536,0.413,0.607,0.446,0.553,0.407,0.412
NCI-H1792,0.797,0.713,0.151,0.108,0.499,0.56,0.567,0.345,0.904,0.465,0.6,0.469,0.319,0.49,0.281,0.264,0.454,0.382,0.229,0.42
NCI-H1793,0.743,0.273,0.16,0.256,0.498,0.469,0.283,0.266,0.683,0.31,0.438,0.258,0.19,0.169,0.125,0.194,0.184,0.179,0.136,0.167
NCI-H1915,0.885,0.931,0.477,0.217,0.247,0.26,0.209,0.168,0.72,0.675,–,0.659,0.777,0.908,0.725,0.729,0.751,0.187,0.213,0.819
NCI-H1944,0.731,0.598,0.271,0.204,0.415,0.388,0.212,0.267,0.541,0.419,0.538,0.387,0.471,0.609,0.434,0.778,0.483,0.195,0.205,0.813
NCI-H1975,0.891,0.225,0.208,0.196,0.403,0.432,0.398,0.34,0.704,0.682,0.605,0.495,0.157,0.169,0.306,0.198,0.243,0.215,0.132,0.222
NCI-H1993,0.813,0.672,0.631,0.632,0.596,0.453,0.442,0.456,0.732,0.555,0.566,0.535,0.611,0.566,0.508,0.977,0.521,0.523,0.45,0.812
NCI-H2085,0.798,0.36,0.297,0.382,0.615,0.452,0.419,0.378,0.92,–,0.732,0.454,0.352,0.308,0.339,0.585,0.477,0.403,0.341,0.412
NCI-H2087,0.894,0.269,0.222,0.186,0.238,0.214,0.182,0.0988,1.4,1.33,1.29,1.17,0.15,0.224,0.152,0.163,0.17,0.15,0.139,0.253
NCI-H2126,0.748,0.737,0.66,0.296,0.589,0.625,0.439,0.303,1.03,1.01,0.892,0.688,0.648,0.589,0.635,0.949,0.954,0.826,0.422,0.882
